MIC data for 3 molecules are collected here from patent publication US4857641A, “C.12 modified erythromycin A derivatives” (Pfizer Inc., priority 1987, dated 1989).

In brackets after ≈: the same amount, converted by molar mass. Read-outs that look alike come from different tables or passages of the source.

Holding throughout (assay): in vitro antibacterial activity (MIC), BHI agar dilution
What all share (format): cell-based
On the technique in general: Agar dilution tests growth on a series of plates holding different concentrations.

The subject of experiment [1] is E. coli. As to conditions: E. coli 470, 18 hours at 37° C. The method, then:
(§1) The compounds of the formula (3) are tested for in vitro antibacterial activity by standard methods in which the minimum inhibitory concentrations (MIC's) in mcg/ml against one or more microorganisms is measured. One such procedure is the one recommended by the International Collaborative Study on Antibiotic Sensitivity Testing (Ericcson and Sherris, Acta. Pathologica et Microbiologia Scandinav, Supp. 217, Section B: 64-68 [1971]), and employs brain heart infusion (BHI) agar and an inocula replicating device. Overnight growth tubes are diluted 100 fold for use as the standard inoculum (20,000-10,000 cells in approximately 0.002 ml. are placed on the agar surface; 20 ml. of BHI agar/dish). Twelve 2 fold dilutions of the test compound are employed, with initial concentration of the test drug being 200 mcg/ml. Single colonies are disregarded when reading plates after 18 hours at 37° C. The susceptibility (MIC) of the test organism is accepted as the lowest concentration of compound capable of producing complete inhibition of growth as judged by the naked eye.

Experiment [2] deals with Hem. infl. As for the experimental part: as §1
Experiment [3] concerns Neis. sic. As to conditions: Neis. sic. 000, 18 hours at 37° C. The method, then:
as §1

The subject of experiment [4] is Pat. mult. As for the experimental part: as §1
Experiment [5] concerns Staph. aureus. The method, then: as §1
Experiment [6] deals with Staph. epid. As to conditions: Staph. epid. 111, 18 hours at 37° C. As for the experimental part:
as §1

In experiment [7] the test system is Strep. faec. As to conditions: Strep. faec. 006, 18 hours at 37° C. The method, then:
as §1

The subject of experiment [8] is Strep. pneum. As to conditions: Strep. pneum. 012, 18 hours at 37° C. The method, then:
as §1

For experiment [9], the system named is Strep. pyog. As for the experimental part:
as §1

The mark [10] stands for this setting: Staph. aureus 052, 18 hours at 37° C.
The mark [11] stands for this setting: Staph. aureus 110, 18 hours at 37° C.
The mark [12] stands for this setting: Escherichia coli, read-out: MIC.
Where [13] appears, read: 18 h, Hem. infl. 038, 18 hours at 37° C, read-out: MIC.
[14] abbreviates: 18 h, Hem. infl. 042, 18 hours at 37° C, read-out: MIC.
The mark [15] stands for this setting: 18 h, Hem. infl. 073, 18 hours at 37° C, read-out: MIC.
The mark [16] stands for this setting: 18 h, Hem. infl. 078, 18 hours at 37° C, read-out: MIC.
[17] abbreviates: 18 h, Hem. infl. 081, 18 hours at 37° C, read-out: MIC.
[18] abbreviates: Staphylococcus aureus, Staph. aureus 005, 18 hours at 37° C, read-out: MIC.
[19] abbreviates: 18 h, Strep. pyog. 054, 18 hours at 37° C, read-out: MIC.
[20] abbreviates: 18 h, Strep. pyog. 203, 18 hours at 37° C, read-out: MIC.

The MIC is the lowest concentration that inhibits growth of the organism. As to “4"-0-Acetyl-12,12'-anhydro-9-deoxo-11-deoxy-9R,11-(thiocarbonyldioxy)erythromycin A [Compound 3a]”, the MIC in experiment [1] was 6.25 mg/L; in [2] (Hem. infl. 012, 18 hours at 37° C) it was greater than 50 mg/L; in experiment [2] (Hem. infl. 038, 18 hours at 37° C), greater than 50 mg/L; in experiment [2] (Hem. infl. 042, 18 hours at 37° C), 50 mg/L; in [2] (Hem. infl. 073, 18 hours at 37° C), 50 mg/L; in experiment [2] (Hem. infl. 078, 18 hours at 37° C), 50 mg/L. The MIC in experiment [2] (Hem. infl. 081, 18 hours at 37° C) came out at 50 mg/L; in experiment [3], 50 mg/L; in experiment [4] (Pat. mult. 001, BHI agar, 18 hours at 37° C), 25 mg/L; in [5] (Staph. aureus 005, 18 hours at 37° C) it was 50 mg/L; in [5] (setting [10]), 50 mg/L; in experiment [5] (setting [11]), 50 mg/L. Further, the MIC came out at 12.5 mg/L in experiment [6]; 50 mg/L in [7]; 3.12 mg/L in experiment [8]; 50 mg/L in [9] (Strep. pyog. 054, 18 hours at 37° C); 3.12 mg/L in [9] (Strep. pyog. 203, 18 hours at 37° C).
In the case of `CCC1OC(=O)C(C)C(OC2CC(C)(OC)C(OC(C)=O)C(C)O2)C(C)C(OC2OC(C)CC(N(C)C)C2O)C(C)(O)CC(C)C(O)C(C)C(O)C1(O)CO` (stereo not drawn) [Compound 3d, 4"-O-Acetyl-9-deoxo-9R-12'-dihydroxyerythromycin A], the MIC in experiment [1] (setting [12]) was 12.5 mg/L (≈ 15.7 µM); in experiment [2] (setting [13]) it was greater than 50 mg/L; in [2] (setting [14]), 50 mg/L (≈ 63 µM); in experiment [2] (setting [15]) it was 50 mg/L (≈ 63 µM); in experiment [2] (setting [16]) it was greater than 50 mg/L; in experiment [2] (setting [17]) it was greater than 50 mg/L. Further, the MIC in experiment [3] (read-out: MIC) is greater than 50 mg/L; in [4] (Pat. mult. 001, BHI agar, 18 hours at 37° C, read-out: MIC) it was 50 mg/L (≈ 63 µM); in experiment [5] (setting [10]), greater than 50 mg/L; in experiment [5] (setting [11]), greater than 50 mg/L; in experiment [5] (setting [18]), greater than 50 mg/L; in [6] (read-out: MIC), greater than 50 mg/L. Further, the MIC in [7] (read-out: MIC) is 25 mg/L (≈ 31.5 µM); in experiment [9] (setting [19]), greater than 50 mg/L; in experiment [9] (setting [20]) it was 3.12 mg/L (≈ 3.93 µM).
`C=C1C(CC)OC(=O)C(C)C(OC2CC(C)(OC)C(OC(C)=O)C(C)O2)C(C)C(OC2OC(C)CC(N(C)C)C2O)C(C)(O)CC(C)C(O)C(C)C1O` (stereo not drawn) [Compound 3b, 4"-O-Acetyl-12,12'anhydro-9-deoxo-9R-hydroxyerythromycin A]: the MIC is 25 mg/L (≈ 32.9 µM) in experiment [1] (setting [12]); 50 mg/L (≈ 65.8 µM) in experiment [2] (setting [13]); greater than 50 mg/L in experiment [2] (setting [14]); greater than 50 mg/L in [2] (setting [15]); greater than 50 mg/L in experiment [2] (setting [16]); greater than 50 mg/L in experiment [2] (setting [17]). For the same molecule, the MIC in experiment [3] (read-out: MIC) is 50 mg/L (≈ 65.8 µM); in [4] (18 h), 25 mg/L (≈ 32.9 µM); in experiment [5] (setting [10]), greater than 50 mg/L; in experiment [5] (setting [11]), greater than 50 mg/L; in [5] (setting [18]) it was greater than 50 mg/L; in experiment [6] (read-out: MIC), greater than 50 mg/L. Further, the MIC in [7] (read-out: MIC) was greater than 50 mg/L; in experiment [9] (setting [19]), greater than 50 mg/L; in experiment [9] (setting [20]) it was 3.12 mg/L (≈ 4.11 µM).
